According to patent publication US10065951B2, “Small molecule transcription modulators of bromodomains” (Icahn School of Medicine at Mount Sinai, priority 2014, dated 2018):

How the values were obtained:
[1] = tested on: rat primary oligodendrocyte progenitors; assay: Oligodendrocyte progenitor differentiation (immunocytochemistry NG2/O4/MBP, qRT-PCR MOG); type: cell-based; conditions: 10 nM
Procedure: Early and differentiating progenitors were identified by positive immunoreactivity for the marker NG2 (dark) or O4 (light), respectively. FIG. 6B illustrates the number of NG2+, O4+ and NG2+/O4+ cells quantified in three independent experiments and the total number of oligodendrocyte lineage cells (mean±SD). FIG. 6C illustrates the results of rat primary cells cultured in medium containing 4c (10 nM) for 4 days and then labeled with O4 (light) and with the differentiation marker MBP (dark). FIG. 6D is a bar graph showing the number of MBP+ cells quantified in three independent experiments (mean±SD). FIG. 6E illustrates the qRT-PCR of the transcript levels of the late differentiation marker MOG in treated cells.
Cortex from rat p1 pups were dissected in L-15 medium and collected in NM10 medium (DMEM+10% FBS+2 mM glutamine+1 mM sodium pyruvate+100 U/ml penicillin+100 μg/ml streptomycin). The dissociated cells were plated into 75 cm^2 flasks (1.5 brain per flask) and cultured at 37° C. supplied with 5% CO2 for 7 days with the changing of fresh NM10 medium every other day. At day 8 the flasks were shaken for 16-18 h at 200 rpm and 37° C. and the medium containing the ‘shaken-off’ cells were collected. Oligodendrocyte progenitors (OPCs) were then isolated from the cell suspension by immunoselection using A2B5 antibodies followed by incubation with anti-immunoglobulin magnetic microbeads (50 nm in size and biodegradable) and separation using a high-gradient magnetic field generated by the permanent magnet in the MACS Separator unit (Miltenyi Biotec). The purified OPCs were plated in NM10 medium onto Lab Tek®II 8-well chamber slides (Nalge Nunc Inc.) at a density of 2×10^4 per well for immunocytochemistry, or poly-D-lysine-coated 6-well plates at a density of 2×10^5 per well for RNA isolation. After incubated for 8-16 hr, the medium was changed to ODM (DMEM, 2 mM L-glutamine, 1 mM sodium pyruvate, 10 ng/ml biotin, 100 μg/ml apotransferrin, 100 μM putrescine, 20 nM progesterone, 30 nM sodium selenite, 5 μg/ml insulin, 100 U/ml penicillin, 100 μg/ml streptomycin) supplemented with bFGF (20 ng/ml) and platelet derived growth factor (PDGF; 10 ng/ml), and cultured for additional one day as previously described (He, Y. et al., Neuron 55, 217-30 (2007)). Oligodendrocyte differentiation was induced by culturing the cells in the same medium devoid of mitogens (ODM) with or without compounds at indicated concentrations. […]
Images were captured at 20× objective using LSM 710 Meta confocal laser scanning microscope (Carl Zeiss MicroImaging, Inc.). For the quantification of the cells at different stages, three fields of each well and three wells of each condition were analyzed. […]

[2] = tested on: oligodendrocyte progenitor cultures; assay: Microarray and qRT-PCR gene expression in oligodendrocyte progenitor cultures; type: cell-based, rat
Procedure: Raw values were normalized to Gapdh levels and expressed relative to the levels detected in cells kept for 1 day in ODM. A housekeeping gene (act) was used as a control.
Total RNA were isolated from the cells using Trizol® Reagent following manufacturer's instruction and cleaned up using RNeasy Mini kit (Qiagen, Hilden, Germany). 0.5-1 μg of total RNA was used in 20 μl of reverse transcription (RT) reaction, using SuperScript RT-PCR kit (Invitrogen, Carlsbad, Calif.). Quantitative RT-PCR was performed using Applied Biosystems SYBR green PCR master mix in 384-well plate in ABI 7900HT Sequence Detection PCR System. The PCR was performed in a 20 μl reaction mixture containing 0.2 μl cDNA as template and 100 nM specific oligonucleotide primer pairs using program denaturation at 95° C. for 15 s; annealing and extension at 60° C. for 1 min for 40 cycles. Melting curve of each sample was measured to ensure the specificity of the products. Data were normalized to the internal control GAPDH and analyzed using Pfaffl ΔΔCt method.
To determine how 4c exerts the pro-differentiative effect at 10 nM on the lineage progression of oligodendrocyte progenitors when the global histone acetylation is unchanged, a possibility that the compound would primarily affect CBP binding to target genes was investigated. To test this hypothesis, a microarray analysis was performed of cultures either untreated or treated with 10 nM 4c for 1 or 4 days.

[3] = 10 nM, four days of treatment, microarray
[4] = 10 nM, one day of treatment, microarray

Q: What does the source list for CC(=O)NCCCCn1c2c(c3ccccc31)C(=O)NCC2 [4c, 2,3,4,5-tetrahydro-5-(4′-acetamidobutyl)-1H-pyrido-[4,3-b]indol-1-one]?
A: percentage of MBP+ cells ([1]; 4-day treatment): increased percentage of MBP+ cells; transcript levels of late-differentiation marker MOG ([1]; 4-day treatment, qRT-PCR): increased transcript levels; NG2+ progenitors ([1]; two-day treatment): concomitant decrease of NG2+ progenitors; percentage of O4+ cells ([1]; two-day treatment): increased percentage of O4+ cells; number of genes down-regulated [2, 3]: 536 genes; number of genes up-regulated [2, 3]: 57 genes; number of genes decreased more than 1.2 fold [2, 4]: 832 genes; number of genes increased more than 1.2 fold [2, 4]: 169 genes; expression of Ctnnb1 and Lmnb1 ([2]; qRT-PCR, 4c-treated cells): reduced expression
